{"source": "patent US10231985B2", "about": "“Compounds and compositions comprising such compounds for the prevention or treatment of dyslipidaemias” (CENTRE NATIONAL DE LA RECHERCHE SCIENTIFIQUE, priority 2013, dated 2019)", "key": {"[1]": {"tested_on": "hem1Δ yeasts grown under SFA accumulation conditions", "assay": "Restoration of growth of lipointoxicated hem1Δ yeast", "assay_type": "cell-based, Saccharomyces cerevisiae", "conditions": "after 3 days, increasing concentrations", "description": "The strain bearing the hem1Δ mutation is grown, under aerobic conditions, with shaking and at 28° C., in liquid YPG^A medium (YPG (1% yeast extract (w/v), 1% peptone (w/v) and 2% glucose (w/v)) supplemented with 80 μg/ml 6-aminolevulinic acid (ALA)). Lipointoxication by saturated fatty acids (SFA) is caused by depletion of unsaturated fatty acids (UFA), the synthesis of which is dependent on the presence of heme (the prosthetic group of the Ole1p enzyme in particular), by transfer to YPG^+ medium (YPG supplemented with 80 μg/ml ergosterol to compensate for the sterol depletion obtained under this condition). Lipointoxication can be induced on solid YPG^+ medium+2% agar (w/v) by transferring 3500 cells (hem1Δ from preculture in YPG^A) per cm^2 or, alternatively, in liquid medium by inoculating 2×10^6 cells/ml YPG^+. Classically, the effects of SFA lipointoxication are analyzed 7 hours after the transfer to YPG^+ medium. The ability of a compound to counter the deleterious effects of SFA lipointoxication, in turn, is evaluated successively to the addition of this compound on (or in) the YPG^+ transfer medium, after seeding with the cells.\nFollowing the induction of SFA lipointoxication (for hem1Δ grown on solid medium) 5 μl drops of solutions of the various compounds at 10 mM in dimethylsulfoxide (DMSO) or ethanol (EtOH) are deposited on the surface of the agar. The ability of a compound to counter the arrest of lipid-induced cell growth is estimated by the appearance of a halo of hem1Δ colonies at the site of the deposition of said compound after 3 days of culture at 28° C. (see Deguil et al., 2011).\nJointly with the induction of SFA lipointoxication (for hem1Δ in liquid medium), the various compounds are added to the cultures at an initial concentration of 200 μM. Proliferation is monitored by spectrometric measurement of cell density, at regular time intervals (every hour over the duration of the observation). At a wavelength of 600 nm, one optical density unit (OD600 nm) corresponds to 2×10^7 cells/ml."}, "[2]": {"tested_on": "QM strain (cells not synthesizing triglycerides)", "assay": "Toxicity test on QM strain (growth inhibition halos)", "assay_type": "cell-based, Saccharomyces cerevisiae", "conditions": "5 μl drops on agar, after three days", "description": "Drops (5 μl) of OAG, LPA or oleic acid were deposited, from stock solutions at the indicated concentrations, on the surface of an agar medium over which the QM strain had been spread beforehand. […] These halos are, however, not observed in the presence of LPA or of OAG.\nIn parallel, wild-type (WT) and quadruple mutant (QM) strains are grown, under aerobic conditions, with shaking and at 28° C., in liquid YPG medium before seeding 3500 cells per cm^2 of YPG+2% agar (w/v). Following this transfer to solid medium, 1 μl drops of 1, 10 and 100 mM solutions of the various compounds in DMSO or EtOH are deposited on the agar surface. Separately, DMSO and EtOH are also deposited in order to evaluate the intrinsic toxicity of these two solvents. After 3 days of culture at 28° C., the toxicity of the compounds tested is evaluated by comparing the growth inhibition halo diameters obtained for the depositions of pure solvent with those of the depositions of the various concentrations of the compounds tested. Unlike the WT strain, the QM strain is incapable of buffering excess exogenous oleic acid in the form of neutral lipids (triglycerides (TG) or esterified sterols (ES)) in lipid droplets."}, "MIN6 pancreatic β-cells": {"tested_on": "MIN6 pancreatic β-cells", "assay": "Monitoring of insulin maturation (Western blot, anti-insulin)", "assay_type": "cell-based, mouse", "conditions": "MIN6, 400 μM palmitic acid 48 hours, 200 μM compound during final 24 hours", "description": "Pancreatic β-cells, MIN6, were grown under control conditions (0) or, alternatively, in the presence of an exogenous source of 400 μM palmitic acid (P), for 48 hours, as described by Boslem et al. (2011), in order to generate lipointoxication conditions. During the final 24 hours of growth, 200 μM OAG, LPA or mannide monooleate was added or not as mentioned.\nIn the manner of that described above for the lipointoxication of BRIN-BD11 cells, the MIN6 cell line is grown in complete DMEM-High Glucose medium […], supplemented with 10% (v/v) fetal calf serum (FCS), 15 mM HEPES, 100 U/ml penicillin and 100 μg/ml streptomycin, and lipointoxication is induced by exposure to 400 μM palmitic acid, coupled to BSA (0.92% (w/v) final), for 48 hours, with or without the addition of the compound of interest (see Boslem et al., 2011). The cells are then collected and a Western blot is carried out as indicated above, using anti-insulin antibodies in order to follow the maturation of proinsulin to insulin."}}, "data": [{"smiles": "CCCCCCCC/C=C\\CCCCCCCC(=O)OC[C@H](CO)OC(C)=O", "note": "[OAG, 1-oleoyl-2-acetyl-sn-glycerol]", "values": [{"measurement": "Restoration of the growth of hem1Δ yeasts", "setting": "[1]", "value": "restore the growth"}, {"measurement": "Growth inhibition halos on QM strain", "setting": "[2]", "value": "not observed"}, {"measurement": "Maturation of proinsulin to insulin", "setting": "MIN6 pancreatic β-cells", "value": "only mannide monooleate restores"}]}, {"smiles": "CCCCCCCC/C=C\\CCCCCCCC(=O)OC[C@@H](O)COP(=O)(O)O", "note": "[LPA, 1-oleoyl-sn-glycerol-3-phosphate]", "values": [{"measurement": "Restoration of the growth of hem1Δ yeasts", "setting": "[1]", "value": "restore the growth"}, {"measurement": "Growth inhibition halos on QM strain", "setting": "[2]", "value": "not observed"}, {"measurement": "Maturation of proinsulin to insulin", "setting": "MIN6 pancreatic β-cells", "value": "only mannide monooleate restores"}]}]}
